According to patent US10955421B2, “Detection of membrane proteins” (Oxford University Innovation Limited, priority 2017, dated 2021):

Key:
NTR1 [1] = target: T1, NTR1 (Rattus norvegicus, UniProt P20789); experiment: Native mass spectrometry of PIP2 binding to NTR1 in Fos-Choline-16; conditions: after incubation of PIP2 and NTR1 in Fos-Choline-16 (FIG. 6A)
Experimental: (§1) Purified GPCRs were buffer exchanged into 50-200 mM ammonium acetate containing Fos-Choline detergents at 2 times critical micelle concentration (CMC) by using Bio-Spin size exclusion spin column (Bio-rad) prior to mass spectrometer analysis. Detergent exchange could be also performed by size exclusion chromatography equipped with FPLC system. Protein samples were fractionized by the size exclusion columns equilibrated with 50-200 mM ammonium acetate containing Fos-choline detergents at 2 times CMC, and the protein fractions were collected and concentrated by centrifugation-based protein concentrators Vivaspin.
PIP2 powder (Avanti) was dissolved into solvent containing chloroform, methanol and H2O with volume ratio of 20:9:1. The aliquoted PIP2 solution was dried out by gas-assisted evaporation and re-suspended into 50-200 mM ammonium acetate containing 0.00106% Fos-Choline-16, followed by sonication in water bath for 30 mins.
The measurement of GPCRs was performed on a modified Synapt G1 (Waters) or a modified Q-Exactive (Thermo) mass spectrometer. The data in Examples 2 and 4 were obtained using a Q-Exactive mass spectrometer, whereas the data in Example 3 were obtained using a Synapt G1 mass spectrometer. […]

NTR1 [2] = target: T1, NTR1; experiment: Detergent screening by neurotensin-binding assay (BODIPY-NT8-13); conditions: BODIPY-NT8-13 bound to NTR1 in detergent extract, room temperature, 1 hr (FIG. 1C)
Experimental: (§2) The gene fragment of rat NTR1 (wild-type, 1-424) with exogenous c-terminal Flag- and His-tag was constructed into modified pHLsec vector for transient protein overexpression. Plasmids were transfected into HEK293T cells via a liposome-based method with Lipofectamine 2000 transfection reagent and the cells were harvested 24 hrs after transfection for further experiments.
Protein extract from HEK293T cells with NTR1 overexpression was incubated with BODIPY-labelled neurotensin 8-13 (BODIPY-NT8-13) at room temperature for 1 hr. The unbound BODIPY-NT8-13 was removed by Bio-Spin size exclusion spin column (Bio-rad) and the fluorescent signal of BODIPY-NT8-13 bound to receptor was detected by fluorescence microplate reader.
Various detergents were assessed for their ability to preserve the conformation and activity of NTR1. The detergents assessed were: (1) n-dodecyl-β-D-maltoside (DDM); (2) n-undecyl-β-D-maltoside (UDM); (3) n-nonyl-β-D-glucopyranoside (NG); (4) n-octyl-β-D-glucopyranoside (OG); (5) octyl glucose neopentyl glycol (OGNG); (6) n-octyl-β-D-thioglucopyranoside (OTG); (7) tetraethylene glycol monooctyl ether (C8E4); (8) hexaethylene glycol monodecyl ether (C10E6); (9) polyethylene glycol tert-octylphenyl ether (Triton X-100); (10) lauryldimethylamine-N-oxide (LDAO); and (11) hexadecylphosphocholine (Fos-Choline-16).

NTR1 [3] = target: T1, NTR1; experiment: Detergent screening by western blotting (receptor aggregation); conditions: NTR1 solubilised from HEK293T cells in 1% detergent; compared with the other detergents tested (FIGS. 1A and B)
Experimental: as §2
HEK293T cells with NTR1 overexpression were lysed in lysis buffer (100 mM sodium phosphate, pH 7.2, 150 mM NaCl, 10% glycerol, 1× EDTA-free protease inhibitor cocktail from Roche) containing 1% various detergents for screening. Cell lysate was harvested after pelleting down the debris by centrifugation, and protein concentration was measured by Pierce 660 nm protein assay reagent (Pierce). Equal amounts of protein extract in different detergents were applied for western blotting to detect NTR1 by using an anti-His tag antibody. Semi-quantification was performed by Gel-pro software to quantify the protein amount and relative ratio of protein aggregation.
Various detergents were assessed for their ability to preserve the conformation and activity of NTR1. […]

[4] = tested on: human P2Y1 purinergic receptor (P2Y1R); experiment: Native mass spectrometry of P2Y1R ligand binding in Fos-Choline-16
Experimental: P2Y1R and P2Y1R-MRS2500 complex were prepared as described in Zhang et al., Nature, 2015, 520, 317.
as §1
The measurement of GPCRs was performed on a modified Synapt G1 (Waters) or a modified Q-Exactive (Thermo) mass spectrometer. The data in Examples 2 and 4 were obtained using a Q-Exactive mass spectrometer, whereas the data in Example 3 were obtained using a Synapt G1 mass spectrometer.
The Q-Exactive mass spectrometer was set up according to Gault et al. (Nat. Methods 13, 333-336, 2016). Briefly, a gentle voltage gradient was applied (injection flatapole, inter flatapole, bent flatapole, transfer multipole: 7.9, 6.94, 5.9, 4 V respectively). The acceleration voltage applied in HCD cell was optimized for GPCRs (60-150 V) to remove the detergent micelles from protein ions. Spectra were acquired with ten microscans and the noise level parameter of 3 was applied. Backing pressure was maintained at 1.05-1.3×10^−9 mBar to allow better transmission of GPCR ions.
High-resolution MS was used to probe the drug/ligand interactions of human P2Y1R purified from insect cells. By controlled application of collisional activation, intact P2Y1R was liberated from its detergent micelle, preserving the non-covalent interactions formed in solution. The phosphate-containing detergent of Example 1 (Fos-16) was used in these experiments.

[5] = 1:0.5 molar ratio of protein to ATP (FIG. 3B)
[6] = endogenous nucleotide, purified P2Y1R, UniDec deconvolution (FIG. 2A)

T1 sequence (P20789 whole entry): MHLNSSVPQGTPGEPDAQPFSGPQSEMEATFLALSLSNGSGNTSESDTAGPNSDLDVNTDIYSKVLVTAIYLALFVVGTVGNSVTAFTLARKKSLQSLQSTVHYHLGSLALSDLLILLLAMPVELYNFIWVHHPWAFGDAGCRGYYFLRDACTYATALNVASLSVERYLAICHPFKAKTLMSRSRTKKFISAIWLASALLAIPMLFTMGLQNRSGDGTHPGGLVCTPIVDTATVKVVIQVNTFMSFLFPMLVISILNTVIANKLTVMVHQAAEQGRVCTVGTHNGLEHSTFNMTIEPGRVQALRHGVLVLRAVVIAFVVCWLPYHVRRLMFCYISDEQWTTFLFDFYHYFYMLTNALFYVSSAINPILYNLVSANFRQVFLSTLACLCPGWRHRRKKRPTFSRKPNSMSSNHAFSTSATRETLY

PIP2
PIP2 binding of NTR1 (NTR1 [1]): Multiple binding

CCCCCCCCCCCCCCCCOP(=O)([O-])OCC[N+](C)(C)C [Fos-Choline-16, n-hexadecylphosphocholine]
ligand binding activity (NTR1 [2]): substantially preserved
receptor aggregation and oligomerisation (NTR1 [3]): less receptor aggregation and oligomerisation

Nc1ncnc2c1ncn2[C@@H]1O[C@H](COP(=O)(O)OP(=O)(O)OP(=O)(O)O)[C@@H](O)[C@H]1O [ATP, adenosine 5′-triphosphate]
ADP-bound receptor converted into the ATP bound state [4, 5]: ~30%
apo receptor converted into the ATP bound state [4, 5]: around 80%
displacement of MRS2500 from the P2Y1R-MRS2500 complex ([4]; 1:2 molar P2Y1R:ATP, 30 min incubation at 37° C. (FIG. 4)): complete displacement of MRS2500
further decrease of ADP binding ([4]; 2 molar excess of ATP (FIG. 3C)): 40%
ATP-binding ratio of phosphorylated P2Y1R [4, 6]: 39.6%
ATP-binding ratio of receptor without phosphorylation [4, 6]: 41.5%

CNc1nc(I)nc2c1ncn2[C@H]1C[C@H](OP(=O)(O)O)[C@]2(COP(=O)(O)O)C[C@H]12 [MRS2500, (1′R2′S,4′S,5′S)-4-(2-iodo-6-methylamino-purine-9-yl)-1-[(phosphato)methyl] 2(phosphato)bicycle[3.1.0]-hexane]
ADP binding in the presence of the drug ([4]; P2Y1R purified in the presence of MRS2500): No ADP binding was detected
percentage of interaction with P2Y1R ([4]; P2Y1R purified in the presence of MRS2500 (FIG. 2B)): 100 percentage
